Where a SMILES comes first, the peptide text is derived from it. Bridges are numbered along the chain shown (N, C = ends). [ ]: non-standard residue; d: D form. The star is where a group is joined. Phe(3,5-F2) = N[C@@H](Cc1cc(F)cc(F)c1)C(=O)O; Heptenoyl(2E) = CCCC/C=C/C(=O)*; aThr = C[C@H](O)[C@H](N)C(=O)O; Pip = O=C(O)[C@@H]1CCCCN1
Assays:
[1] = tested on: HEK293 T-REx WT cells; experiment: Western blots for HsCIpX and apoptotic protein markers; format: cell-based, human
Experimental: Cells were harvested by the standard trypsinization protocol and counted with a hemocytometer. Cell lysates were prepared by first re-suspending the cells in PBS at 5×10^6 cells/mL, followed by sonication. Proteins in the lysates were analyzed by Western blotting using Immobilin-P PVDF membranes (EMD Millipore). Blots were imaged and analyzed with the ChemiDoc XRS+ System (BioRad). Quantification of HsCIpP expression was performed by densitometry using the Quantity One 1D Analysis Software (BioRad). HsCIpP expression levels were corrected for sample loading errors and normalized to the expression level in HEK293 T-REx WT. Primary antibodies for HsCIpP, HsCIpX and GAPDH were purchased from Abcam. Primary antibodies for Caspase-8, Caspase-9 and PUMA were purchased from Cell Signaling Technologies. The primary antibody for Caspase-3 was purchased from R&D Systems. Primary antibodies for Mcl-1 and Bcl-2 were purchased from EMD Millipore. The primary antibody for the FLAG-tag was purchased from Sigma-Aldrich. HRP-conjugated goat anti-rabbit IgG (for HsCIpX, Caspase-8, Caspase-9 and PUMA) and HRP-conjugated goat anti-mouse IgG (for HsCIpP, Mcl-1, Bcl-2, GAPDH and FLAG-tag) were purchased from BioRad. HRP-conjugated rabbit anti-goat IgG (for Caspase-3) was purchased from Sigma-Aldrich.

[2] = tested on: HEK293 T-REx WT cells; experiment: TUNEL assay, fluorescence microscopy; format: cell-based, human; details: 10 μM, 72 hours
Experimental: Prior to use, the cover slips were cleaned by treatment with 1 M HCl for 2-3 days, followed by thorough rinsing with distilled water and a second treatment with 95% ethanol for 16-18 hours. The cleaned cover slips were sterilized by autoclaving and dried under UV light. To ensure proper attachment of the cells, the sterilized cover slips were coated with gelatin by application of a 0.2% solution and incubation at 37° C. for at least 2 hours. Excess gelatin solution was then removed, and the cover slips were allowed to dry in a sterile environment for 2-4 hours before use.
WT cells treated with ADEP-41 were seeded at a density of 1×10^5 cells/mL (2 mL per well) to compensate for lack of cell growth and division resulting from the ADEP treatment. […]
Cells were fixed in the presence of 4% formaldehyde at room temperature for 30-45 minutes, followed by membrane permeabilization with 0.1% Triton X-100 (in PBS from Gibco) supplemented with 0.1% sodium citrate at room temperature for 30 minutes. […] Cells were mounted onto standard glass microscope slides with DAPI Fluoromount-G (Southern Biotech) for visual examination using the Eclipse 80i fluorescence microscope (Nikon) equipped with the X-Cite Series 120Q excitation light source (Excelitas Technologies). Both light and fluorescence microscopic images were captured and analyzed using the NIS-Elements Basic Research Software (Nikon).

SMILES: CCCC/C=C/C(=O)N[C@@H](Cc1cc(F)cc(F)c1)C(=O)N[C@@H]1C(=O)N2CCC[C@H]2C(=O)N2CCCC[C@H]2C(=O)N[C@@H](C)C(=O)N2CCC[C@H]2C(=O)O[C@H]1C [ADEP-41] ({Heptenoyl(2E)}-[Phe(3,5-F2)][aThr]P[Pip]AP; ester 2-C)
- activation-specific cleavage of Caspase-8 ([1]; 10 μM, 72 hours): no activation-specific cleavage was observed
- activation-specific cleavage of Caspase-9 and Caspase-3 ([1]; 10 μM, 72 hours): activation-specific cleavage was detected
- level of anti-apoptotic Bcl-2 protein ([1]; 10 μM, 72 hours): no change
- HsCIpX level ([1]; 20 μM 24 hours or 10 μM 72 hours): no longer detected
- activation-specific cleavage of Caspase-8, Caspase-9 or Caspase-3 ([1]; 20 μM, 24 hours): no activation-specific cleavage was observed
- anti-apoptotic Mcl-1 protein ([1]; 20 μM, 24 hours): degraded
- pro-apoptotic PUMA protein ([1]; 20 μM, 24 hours): significantly upregulated
- TUNEL-positive cells relative to DMSO-treated WT cells [2]: about 20 times

Source: patent US20210171576A1, “METHODS FOR TREATING CANCER WITH ACYLDEPSIPEPTIDE ANALOGS” (priority 2018, published 2021)
